Laboratory results taken from the supplement of paper PMC10307832.

Columns and labels:
Experiment in all cases: relative viability (nuclei count vs DMSO), 5 days (fraction); higher = more cells survive
Apatinib + Linsitinib = compound: N#CC1(c2ccc(NC(=O)c3cccnc3NCc3ccncc3)cc2)CCCC1 [Apatinib] + C[C@]1(O)C[C@@H](c2nc(-c3ccc4ccc(-c5ccccc5)nc4c3)c3c(N)nccn32)C1 [Linsitinib] (partner 1 µM)
Method in brief: (§1)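 Lung cancer cell lines, seeded in 1536-well plates, were treated the following day by pin tool with a single drug or with five library-drug doses (not always all listed) in √10 steps on top of a fixed anchor-drug dose. Cells were fixed and nuclei stained in one step after 5 days, and nuclei were counted. Relative viability is the nuclei count for treated wells divided by that for vehicle wells, reported as medians of duplicate plates.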

Metformin + Olaparib = compound: CN(C)C(=N)NC(=N)N [Metformin] + O=C(c1cc(Cc2n[nH]c(=O)c3ccccc23)ccc1F)N1CCN(C(=O)C2CC2)CC1 [Olaparib] (partner 8 µM)
Method in brief: as §1

Metformin + Alpelisib = compound: CN(C)C(=N)NC(=N)N [Metformin] + Cc1nc(NC(=O)N2CCC[C@H]2C(N)=O)sc1-c1ccnc(C(C)(C)C(F)(F)F)c1 [Alpelisib] (partner 2 µM)
Method in brief: as §1

Apatinib + Bortezomib = compound: N#CC1(c2ccc(NC(=O)c3cccnc3NCc3ccncc3)cc2)CCCC1 [Apatinib] + CC(C)C[C@H](NC(=O)[C@H](Cc1ccccc1)NC(=O)c1cnccn1)B(O)O [Bortezomib] (partner 0.002 µM)
Method in brief: as §1

| Cell Line | relative viability (Apatinib + Linsitinib; first compound 0.08 µM) | relative viability (Apatinib + Linsitinib; first compound 0.253 µM) | relative viability (Apatinib + Linsitinib; first compound 0.8 µM) | relative viability (Apatinib + Linsitinib; first compound 2.53 µM) | relative viability (Apatinib + Linsitinib; first compound 8 µM) | relative viability (Metformin + Olaparib; first compound 10 µM) | relative viability (Metformin + Olaparib; first compound 31.62 µM) | relative viability (Metformin + Olaparib; first compound 100 µM) | relative viability (Metformin + Olaparib; first compound 316.23 µM) | relative viability (Metformin + Olaparib; first compound 1000 µM) | relative viability (Metformin + Alpelisib; first compound 10 µM) | relative viability (Metformin + Alpelisib; first compound 31.62 µM) | relative viability (Metformin + Alpelisib; first compound 100 µM) | relative viability (Metformin + Alpelisib; first compound 316.23 µM) | relative viability (Metformin + Alpelisib; first compound 1000 µM) | relative viability (Apatinib + Bortezomib; first compound 0.08 µM) | relative viability (Apatinib + Bortezomib; first compound 0.253 µM) | relative viability (Apatinib + Bortezomib; first compound 0.8 µM) | relative viability (Apatinib + Bortezomib; first compound 2.53 µM) | relative viability (Apatinib + Bortezomib; first compound 8 µM) |
| --- | --- | --- | --- | --- | --- | --- | --- | --- | --- | --- | --- | --- | --- | --- | --- | --- | --- | --- | --- | --- |
| NCI-H661 | 0.526 | 0.578 | 0.648 | 0.596 | 0.52 | 0.648 | 0.718 | 0.715 | 0.694 | 0.711 | 0.745 | 0.404 | 0.711 | 0.757 | 0.774 | 0.935 | 0.855 | 0.685 | 0.764 | 0.584 |
| NCI-H441 | 0.596 | 0.61 | 0.628 | 0.422 | 0.303 |  | 0.575 | 0.387 | 0.356 | 0.374 | 0.566 |  | 0.765 |  | 0.572 | 0.615 | 0.481 | 0.592 | 0.322 | 0.217 |
| LCLC-97TM1 | 0.224 | 0.169 | 0.173 | 0.164 | 0.142 |  | 0.321 | 0.394 | 0.249 | 0.414 | 0.285 | 0.284 | 0.339 | 0.252 | 0.346 | 0.774 | 0.775 | 0.508 | 0.344 | 0.574 |
| RERF-LC-KJ | 0.908 | 0.908 | 0.821 | 0.845 | 0.757 | 0.651 | 0.715 | 0.757 | 0.625 | 0.63 | 0.702 | 0.746 | 0.788 | 0.619 | 0.735 | 1.03 | 0.99 | 1.04 | 1.05 | 1.05 |
| NCI-H2405 | 1.05 | 1.12 | 1.05 | 0.95 | 0.955 |  | 0.905 | 0.813 | 0.635 | 0.506 | 0.873 | 0.971 | 0.852 | 0.453 | 0.373 | 0.891 | 0.99 | 0.961 | 0.954 | 0.961 |
| NCI-H1792 | 0.719 | 0.51 | 0.502 | 0.491 | 0.641 | 0.463 | 0.39 | 0.498 | 0.358 | 0.402 |  | 0.798 | 0.979 | 0.691 | 0.869 | 0.917 | 1.05 | 0.957 | 0.906 | 0.968 |
| UMC-11 | 0.999 | 1.01 | 0.979 | 0.911 | 0.93 | 0.337 | 0.269 | 0.31 | 0.332 | 0.276 | 1.06 | 0.992 | 1.03 | 0.988 | 0.971 | 1.01 | 0.728 | 0.722 | 0.623 | 0.67 |
| NCI-H727 | 0.33 | 0.33 | 0.415 | 0.348 | 0.36 | 0.641 | 0.599 | 0.582 |  | 0.577 | 0.657 | 0.749 | 0.469 | 0.647 | 0.533 | 0.684 | 0.706 | 0.62 | 0.599 | 0.716 |
| NCI-H1299 | 0.989 | 0.984 | 0.958 | 0.853 | 0.77 | 0.867 | 0.924 | 0.941 | 0.873 | 0.933 | 0.991 | 0.998 | 1.05 | 0.994 | 0.933 | 1.06 | 1.02 | 0.987 | 1.03 | 0.908 |
| NCI-H650 | 0.787 | 0.871 | 0.756 | 0.734 | 0.663 | 0.315 | 0.296 | 0.396 | 0.316 | 0.368 | 1.22 | 1.29 | 1.33 | 1.23 | 1.37 | 0.888 | 0.835 | 0.834 | 0.543 | 0.754 |
| NCI-H838 | 1.14 | 1.18 | 0.962 | 0.985 | 1.04 | 0.686 | 0.691 | 0.639 | 0.596 | 0.696 | 1.04 | 0.969 | 0.969 | 0.988 | 1.02 | 0.931 | 0.963 | 0.57 | 0.887 | 0.712 |
| SK-LU-1 | 1.1 | 1.3 | 1.04 | 0.809 | 0.787 | 0.356 | 0.375 | 0.502 | 0.389 | 0.398 | 0.916 | 0.934 | 0.829 | 0.948 | 1.07 | 0.932 | 1.26 | 0.968 | 1.12 | 1 |
| SW 1573 | 0.898 | 0.784 | 0.979 | 0.885 | 0.854 | 0.441 | 0.468 | 0.471 | 0.381 | 0.352 | 0.853 | 0.82 | 0.795 | 0.8 | 0.797 | 1.15 | 1.04 | 0.982 | 1.05 | 0.944 |
| NCI-H1993 | 0.751 | 0.648 | 0.742 | 0.715 | 0.775 | 1.01 | 1.02 | 1.12 | 0.882 | 0.955 | 0.634 | 0.67 | 0.643 | 0.62 | 0.705 | 1.2 | 1.11 | 0.781 | 1 | 1.07 |
| NCI-H1437 | 1.03 | 1.06 | 0.879 | 0.653 | 0.475 | 0.579 | 0.59 | 0.593 | 0.595 | 0.576 | 1.11 | 1.03 | 1.07 | 1.05 | 1.01 | 0.52 | 0.526 | 0.461 | 0.434 | 0.439 |
| H3255 | 1.17 | 0.819 | 0.954 | 0.896 | 0.836 | 0.487 | 0.594 | 0.523 | 0.441 | 0.402 | 0.697 | 0.783 | 0.712 | 0.339 | 0.486 | 0.729 | 0.791 | 0.657 | 0.612 | 0.723 |
| NCI-H322M | 1.13 | 0.878 | 0.978 | 0.974 | 0.842 | 0.686 | 0.695 | 0.739 | 0.672 | 0.654 | 0.83 | 0.901 | 0.845 | 0.787 | 0.779 | 1.23 | 1.19 | 1.05 | 1.24 | 1.25 |
